Tests used:
tubulin = tubulin polymerization inhibition; type: biochemical; details: read-out: Tubulin polymerization IC50
EGFR = EGFR (Homo sapiens, UniProt P00533); assay: in vitro EGFR inhibition; type: biochemical
EGFR, sequence (P00533 25-1210): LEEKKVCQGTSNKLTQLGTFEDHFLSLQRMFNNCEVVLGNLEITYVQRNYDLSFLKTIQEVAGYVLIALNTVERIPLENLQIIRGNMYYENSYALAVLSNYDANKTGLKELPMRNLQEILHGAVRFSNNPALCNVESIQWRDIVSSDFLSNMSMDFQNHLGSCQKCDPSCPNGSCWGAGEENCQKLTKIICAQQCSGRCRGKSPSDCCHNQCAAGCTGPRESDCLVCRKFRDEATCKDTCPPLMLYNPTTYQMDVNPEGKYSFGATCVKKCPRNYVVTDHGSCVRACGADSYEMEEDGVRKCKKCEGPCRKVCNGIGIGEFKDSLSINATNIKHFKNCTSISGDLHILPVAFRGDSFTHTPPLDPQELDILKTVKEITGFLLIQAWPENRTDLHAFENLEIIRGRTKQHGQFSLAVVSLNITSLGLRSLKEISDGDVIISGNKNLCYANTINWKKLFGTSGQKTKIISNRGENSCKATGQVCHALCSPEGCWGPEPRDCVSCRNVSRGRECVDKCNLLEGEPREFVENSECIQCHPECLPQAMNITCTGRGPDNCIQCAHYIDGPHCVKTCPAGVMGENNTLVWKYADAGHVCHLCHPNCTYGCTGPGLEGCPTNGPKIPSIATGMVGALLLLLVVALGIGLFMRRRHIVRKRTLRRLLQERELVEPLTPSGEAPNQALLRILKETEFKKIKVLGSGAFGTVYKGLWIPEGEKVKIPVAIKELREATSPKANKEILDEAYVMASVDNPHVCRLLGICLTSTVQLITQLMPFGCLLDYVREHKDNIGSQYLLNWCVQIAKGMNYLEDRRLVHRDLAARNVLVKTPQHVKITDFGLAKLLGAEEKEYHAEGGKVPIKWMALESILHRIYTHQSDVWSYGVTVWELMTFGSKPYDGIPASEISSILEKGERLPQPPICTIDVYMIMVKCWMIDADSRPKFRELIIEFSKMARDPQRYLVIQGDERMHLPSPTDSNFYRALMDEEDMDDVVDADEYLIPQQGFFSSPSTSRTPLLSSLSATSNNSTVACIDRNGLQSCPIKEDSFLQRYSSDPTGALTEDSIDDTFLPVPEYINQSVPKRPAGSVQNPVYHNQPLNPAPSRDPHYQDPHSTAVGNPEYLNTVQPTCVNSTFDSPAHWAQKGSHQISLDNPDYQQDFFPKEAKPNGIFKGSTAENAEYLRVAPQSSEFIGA

| Molecule | IC50 (tubulin) [µM] | IC50 (EGFR) [nM] |
| --- | --- | --- |
| COc1ccc(C2=NNC3(C2)C(=O)Nc2ccc(Cl)cc23)cc1 (stereo not drawn) [5c, 5-Chloro-5′-(4-methoxyphenyl)-2′,4′-dihydrospiro[indoline-3,3′-pyrazol]-2-one] |  | 80 ± 80 |
| O=C1Nc2ccc(Cl)cc2C12CC(c1ccc(Cl)cc1)=NN2 (stereo not drawn) [5d, 5-Chloro-5′-(4-chlorophenyl)-2′,4′-dihydrospiro[indoline-3,3′-pyrazol]-2-one] |  | 40 ± 90 |
| Nc1ccc(C2=NNC3(C2)C(=O)Nc2ccc(Cl)cc23)cc1 (stereo not drawn) [5b, 5′-(4-Aminophenyl)-5-chloro-2′,4′-dihydrospiro[indoline-3,3′-pyrazol]-2-one] | 4.35 ± 0.11 | 70 ± 90 |

Now from value to molecule:

| IC50 (tubulin) [µM] | IC50 (EGFR) [nM] | Molecule |
| --- | --- | --- |
| 3.85 ± 0.09 | 90 ± 50 | O=C1Nc2ccc(Cl)cc2C12CC(c1ccc(O)cc1)=NN2 (stereo not drawn) [5a, 5-Chloro-5′-(4-hydroxyphenyl)-2′,4′-dihydrospiro[indoline-3,3′-pyrazol]-2-one] |
|  | 50 ± 60 | Nc1ccc(C(=O)C=C2C(=O)Nc3ccc(Cl)cc32)cc1 [4b] |
| 4.5 ± 0.13 |  | Tubulin polymerization inhibitor II [reference compound] |
|  | 100 ± 70 | O=C1Nc2ccc(Cl)cc2/C1=C\C(=O)c1ccc(O)cc1 [4a, (E)-5-Chloro-3-(2-(4-hydroxyphenyl)-2-oxoethylidene)indolin-2-one] |
